This is an account of results in patent US12522596B2, “Compounds as GLP-1R agonists” (Terns Pharmaceuticals, Inc., priority 2021, dated 2026).

Series [1] can be described thus: Rat pharmacokinetics, oral dosing. Type of series: in vivo, Sprague-Dawley rats. The settings on record: for Cmax / AUC(0-t) / half-life: male, Sprague-Dawley, rat plasma, 3 mg/kg PO (0.6 mg/mL); for PK properties relative to Reference Compound A: dosed orally. Here is the method: Oral dosing: Compounds were formulated at 0.3 mg/mL or 0.6 mg/mL in a solution comprising 5% polyethylene glycol 400 and 95% (12% (w/v) sulfobutyl-β-cyclodextrin in water) (v/v). Formulated compounds were administered to male, 7-11 week old Sprague-Dawley rats by oral gavage at a dose of 3 mg/kg.
Sample collection: Blood collections of about 0.2 mL per time point were performed from jugular vein or other suitable site of each animal, into pre-chilled commercial EDTA-K2 tubes and placed on wet ice until centrifugation. Blood samples were processed for plasma by centrifugation at approximately 4° C., 3,200 g for 10 min. Plasma was collected and transferred into pre-labeled 96 well plate or polypropylene tubes, quick frozen over dry ice and kept at −60° C. or lower until LC-MS/MS analysis.
Data analysis: Plasma concentration versus time data was plotted in graph and analyzed by non-compartmental approaches using the Phoenix WinNonlin 6.3 software program. Related PK parameters were calculated according to dosing route, e.g., CL, Vdss and C0 for intravenous administration, Cmax, Tmax or % F for extravascular administration, and T1/2, AUC(0-t), AUC(0-inf), MRT(0-t), MRT(0-inf) for all routes.

The nature of series [2]: Metabolic stability in human hepatocytes. Format: in vitro ADME. The settings on record: cryopreserved hepatocytes; human hepatocytes, 1 μM. Here is the method:
(§1) Test compounds were incubated in rat and human hepatocytes and stability was assessed from the substrate […] approach. Test compounds were dissolved in dimethyl sulfoxide (DMSO) to create a 10 mM Stock, and then further diluted to create a 1000× Working Stock of 1 mM with DMSO in 96-well plates for test compounds and the positive control (midazolam). Vials containing cryopreserved hepatocytes were removed from the liquid nitrogen tank and immediately immersed in a 37° C. water bath. The vials were shaken gently until the contents had thawed and were then immediately emptied into 48 mL of pre-warmed HT Medium in a 50 mL conical tube. Cells remaining in the vial were resuspended with 1.0 mL of pre-warmed HT Medium and added to the conical tube. The tube was capped and then gently inverted several times to resuspend the hepatocytes. The cell suspension was centrifuged at 50×g at room temperature for 5 minutes and the supernatant discarded. The cell pellet was loosened by gently swirling the centrifuge tube and was re-suspended in 4 mL of warm Dulbecco's Modified Eagle medium (DMEM). Cell density was determined by a cell counter by Nexcelom, and DMEM medium was added to obtain a target density of 1×10^6 cells/mL. The assay was carried out in 96-well microtiter plates. Test Compounds were incubated at 1 μM with 1×10^6 cells/mL hepatocytes in DMEM for 0, 30, 60, 120 and 240 minutes. The incubation was carried out with gentle shaking at 37° C. under a humid atmosphere of 95% air/5% CO2. The volume of the incubation mixture was 37 μL with a final 0.1% DMSO. At each of the time points, the incubation was stopped by adding 150 μL quenching solution (100% acetonitrile, 0.1% formic acid containing bucetin as an internal standard for positive ESI mode). Subsequently, the mixtures were vortexed for 20 min and centrifuged at 4,000 RPM at 10° C. The supernatant (80 μL) was transferred to a clean 96-well plate and analyzed by LC-MS/MS. Midazolam at 1 μM with a final 0.1% DMSO was included as a positive control to verify assay performance. The percent parent remaining, intrinsic and predicted hepatic clearance and t1/2 were calculated. All samples were analyzed by LC-MS/MS using an AB Sciex API 4000 instrument, coupled to a Shimadzu LC-20AD LC Pump system. Separation was achieved using a Waters Atlantis T3 dC18 reverse phase HPLC column (20 mm×2.1 mm) at a flow rate of 0.5 mL/min. The mobile phase consisted of 0.1% formic acid in water (solvent A) and 0.1% formic acid in 100% acetonitrile (solvent B). Elution conditions are detailed below.
(§2) The ion optics of each test compound were optimized for their declustering potential (DP), […] (CE), collision-cell exit potential (CXP) and used in a selected ion monitoring experiment in the positive ion mode. The peak area ratio of each test compound to internal standard was then evaluated for stability. The extent of metabolism was calculated based on the disappearance of the test compound, compared to its initial concentration. The initial rates of clearance of the test compound were calculated using the linear regression plot of semi-log % remaining of the compound versus time. The elimination rate constant (k) of the linear regression plot was then used to determine t1/2 and the intrinsic clearance (CLint) using the following formula, where Chepatocyte (million cells/mL) is the cell density of the incubation:
(§3) The predicted hepatic clearance (CLhep) was calculated using the well stirred method with the following formula with CLint(in vivo) normalized based on liver weight: […]
(§4) The relevant physiological parameters of liver weight, blood flow, and hepatocellularity for various species are listed below: […]

For a further series, the target named is T1, human GLP-1R receptor (Homo sapiens, UniProt P43220).
T1 construct: expressed in transfected cells
In words: GLP-1R low expression cell assay (cAMP TR-FRET, CHO-K1_hGLP-1Rlow_clone10). The settings on record: CHO-K1_hGLP-1Rlow_clone10 cells. Type of series: cell-based. On the procedure:
Stable cell lines expressing high and low GLP-1R surface expression were generated in CHO-K1 cells transfected (Fugene 6) with a puromycin selectable DNA plasmid encoding human GLP-1R receptor (accession number: NM_002062.5) under control of an EF1A promoter. Transfected cells were seeded into 24-well plates (9,000 cells/well) containing complete medium and incubated in a humidified incubator at 37° C. with 5% carbon dioxide. After overnight incubation, medium was replaced with complete medium supplemented with puromycin (6 μg/mL) and refreshed every 2-3 days to select for stably transfected cells. Individual pools of selected cells were expanded prior to analysis for responsiveness to GLP-1 control peptide using a TR-FRET assay to detect cAMP (LANCE Ultra CAMP Assay, Perkin Elmer). Briefly, cells were collected in Versene solution, plated in 384-well plates (1,000 cells/well) and combined with serially diluted GLP-1R control peptide (10 nL) using an acoustic dispenser (ECHO). Plates were incubated for 30 minutes at 25° C. prior to the addition of EU-CAMP tracer (5 μL) and Ulight-anti-cAMP (5 μL) reagents to each well, followed by 15 minutes incubation at 25° C. TR-FRET signal was detected using an En Vision Multimode Plate Reader (excitation=320 nm; emission=615 and 655 nm). Dose-response curves were used to generate EC50 values as a measure of responsiveness to the GLP-1R control peptide. Selected cell lines were monitored for responsiveness over multiple passages to ensure stability. […] Briefly, GLP-1R expression was analyzed by flow cytometry using a fluorescein-labeled Exendin-4 peptide fluorescent probe (FLEX). Cells were harvested in Versene solution and washed 3-times with PBS+0.5% BSA before incubation with FLEX reagent (10 μM) for 2 hours at room temperature. After incubation, cells were washed 3-times in PBS+0.5% BSA before final resuspension in PBS prior to analysis by flow cytometry to measure FLEX mean fluorescence intensity (MFI) as a measure of GLP-1R expression on the cell surface.
For compound testing in the CHO-K1_hGLP-1Rlow_clone10 cell line, cells were seeded in 384-well plates (1,000 cells/well). Test compounds were serially diluted in DMSO (10-point, 3-fold dilution), added to wells using an ECHO dispenser (10 nL/well) and plates were centrifuged for 1 min and agitated for 2 min at room temperature prior to 30-minute incubation at 25° C. After incubation, Eu-CAMP (5 μL) and Ulight-anti-cAMP (5 μL) reagents were added to each well, followed by centrifugation for 1 minute, agitation for 2 minutes at room temperature, and final incubation of the plates at 25° C. for 15 minutes. Plates were read using an EnVision microplate reader (excitation=320 nm; emission=615 and 655 nm). Dose-response curves were generated from duplicate wells based on percent activation calculated relative to a control GLP-1 peptide agonist that was run in parallel. EC50 values were determined by fitting percent activation as a function of compound concentration using the Hill equation (XLfit).
Stable cell lines expressing high and low GLP-1R surface expression were generated in CHO-K1 cells transfected (Fugene 6) with a puromycin selectable DNA plasmid encoding human GLP-1R receptor (accession number: NM_002062.5) under control of an EF1A promoter. Transfected cells were seeded into 24-well plates (9,000 cells/well) containing complete medium and incubated in a humidified incubator at 37° C. with 5% carbon dioxide. After overnight incubation, medium was replaced with complete medium supplemented with puromycin (6 μg/mL) and refreshed every 2-3 days to select for stably transfected cells. Individual pools of selected cells were expanded prior to analysis for responsiveness to GLP-1 control peptide using a TR-FRET assay to detect cAMP (LANCE Ultra CAMP Assay, Perkin Elmer).

In the next series the test system is rat hepatocytes. In words: Metabolic stability in rat hepatocytes. Format: in vitro ADME. On the procedure: as §1, §2, §3, §4
A short description of series [3]: Metabolic stability in rat hepatocytes. The settings on record: cryopreserved hepatocytes, 1 μM. Type of series: in vitro ADME. Here is the method:
as §1, §2, §3, §4

SMILES strings stand for the structures.

T1 sequence (P43220 24-463): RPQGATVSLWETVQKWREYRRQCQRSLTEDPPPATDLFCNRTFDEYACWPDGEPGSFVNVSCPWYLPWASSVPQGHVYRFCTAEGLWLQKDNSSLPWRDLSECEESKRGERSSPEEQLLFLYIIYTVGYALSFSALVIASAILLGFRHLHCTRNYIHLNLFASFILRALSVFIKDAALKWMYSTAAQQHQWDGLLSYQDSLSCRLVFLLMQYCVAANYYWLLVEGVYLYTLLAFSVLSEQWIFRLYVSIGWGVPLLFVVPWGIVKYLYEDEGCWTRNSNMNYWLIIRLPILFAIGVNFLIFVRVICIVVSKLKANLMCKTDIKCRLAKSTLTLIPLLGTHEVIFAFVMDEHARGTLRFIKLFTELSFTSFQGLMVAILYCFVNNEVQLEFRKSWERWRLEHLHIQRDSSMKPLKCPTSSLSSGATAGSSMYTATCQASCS

As for `N#Cc1ccc(COc2cccc(C34CCN(Cc5nc6ccc(C(=O)O)cc6n5Cc5cncs5)CC3C4)n2)c(F)c1` (stereo not shown) [Compound 14], the maximum concentration (Cmax) in series [1] (rat, plasma, po, 3 mg/kg) came out at 581 ± 100 ng/mL. In series [1], this compound showed an AUC(0-t) of 582 ± 45 ng·h/mL and a half-life of 3.14 ± 1.88 h. For the same compound, in series [1] (rat), the “PK properties relative to Reference Compound A” value was “similarly improved PK properties”. In series [2], the CLint scaled at 1 μM was determined as 20.1 ± 0.59 mL/min/kg and the half-life at 1 μM was determined as 1.99 ± 0.0583 h. Further, it took 30.1 nM to reach a half-maximal effect on human GLP-1R receptor (EC50). Moreover, the “CLint relative to reference standard” value in the series on rat hepatocytes is given as “significantly increased”. Moreover, in series [3], the CLint scaled at 1 μM came to 92.8 ± 3.3 mL/min/kg and the half-life at 1 μM was found to be 0.597 ± 0.0212 h.

In series [2], `O=C(O)c1ccc2nc(CN3CCC(c4nccc(OCc5ccc(Cl)cc5F)n4)CC3)n(Cc3cncs3)c2c1` [Compound 23] had a CLint scaled at 1 μM of 42.3 ± 1.59 mL/min/kg and a half-life at 1 μM of 1.11 ± 0.0523 h. The compound also had an EC50 at human GLP-1R receptor of 3.3 nM. In the series on rat hepatocytes, the “CLint relative to reference standard” value is on record as “significantly increased” and the “Half-life relative to reference” value is recorded as “significantly lower”. Also, in series [3], the CLint scaled at 1 μM was 57.9 ± 1.25 mL/min/kg and the half-life at 1 μM was determined as 0.957 ± 0.0205 h.

In series [2], `[2H]C([2H])(Oc1cccc(C2CCN(Cc3nc4ccc(C(=O)O)cc4n3Cc3cncs3)CC2)n1)c1ccc(Cl)cc1F` [Compound 26] showed a CLint scaled at 1 μM of 20.9 ± 0.98 mL/min/kg and a half-life at 1 μM of 1.92 ± 0.0905 h. Moreover, the EC50 on human GLP-1R receptor amounted to 4 nM. Also, in the series on rat hepatocytes, the “CLint relative to reference standard” value is recorded as “significantly lower” and the “Half-life relative to reference” value was “significantly higher”. For the same compound, in series [3], the CLint scaled at 1 μM came out at 24.1 ± 0.83 mL/min/kg and the half-life at 1 μM is 2.3 ± 0.0792 h.

In series [1] (rat, plasma, po, 3 mg/kg), `[2H]C([2H])(Oc1cccc(C2CCN(Cc3nc4ccc(C(=O)O)cc4n3Cc3cncs3)CC2)n1)c1ccc(C#N)cc1F` [Compound 27] had an AUC(0-t) of 617 ± 248 ng·h/mL, a Cmax of 478 ± 186 ng/mL and a half-life of 1.37 ± 0.18 h. Besides, the “PK properties relative to Reference Compound A” value in series [1] (rat) is “similarly improved PK properties”. In addition, in series [2], the CLint scaled at 1 μM was found to be 15.6 ± 0.7 mL/min/kg and the half-life at 1 μM was 2.57 ± 0.117 h. The compound further had an EC50 at human GLP-1R receptor of 8.6 nM. In addition, in the series with rat hepatocytes, the “CLint relative to reference standard” value is given as “significantly lower” and the “Half-life relative to reference” value is recorded as “significantly higher”. In addition, in series [3], the CLint scaled at 1 μM was 29 ± 0.58 mL/min/kg and the half-life at 1 μM worked out at 1.91 ± 0.0383 h.

For the compound `N#Cc1cnc(COc2cccc(C3CCN(Cc4nc5ccc(C(=O)O)cc5n4Cc4cncs4)CC3)n2)c(F)c1` [Compound 29], in series [1] (rat, plasma, po, 3 mg/kg), the AUC(0-t) was 411 ± 32 ng·h/mL, the Cmax worked out at 299 ± 62.9 ng/mL and the half-life was 1.54 ± 0.46 h. Further, the “PK properties relative to Reference Compound A” value in series [1] (rat) is listed as “similarly improved PK properties”. In series [2], this compound displayed a CLint scaled at 1 μM of 15.3 ± 0.76 mL/min/kg and a half-life at 1 μM of 2.61 ± 0.13 h. In addition, at human GLP-1R receptor, a half-maximal response (EC50) required 27.8 nM. Also, in the series with rat hepatocytes, the “CLint relative to reference standard” value was “significantly lower” and the “Half-life relative to reference” value is reported as “significantly higher”. Also, in series [3], the CLint scaled at 1 μM worked out at 35.8 ± 1.42 mL/min/kg and the half-life at 1 μM worked out at 1.55 ± 0.0615 h.
